# Biological target: T1, human M5 receptors (hM5) (Homo sapiens, UniProt P08912)
# T1 construct: expressed in transfected cells
# T1 sequence (P08912 1-532): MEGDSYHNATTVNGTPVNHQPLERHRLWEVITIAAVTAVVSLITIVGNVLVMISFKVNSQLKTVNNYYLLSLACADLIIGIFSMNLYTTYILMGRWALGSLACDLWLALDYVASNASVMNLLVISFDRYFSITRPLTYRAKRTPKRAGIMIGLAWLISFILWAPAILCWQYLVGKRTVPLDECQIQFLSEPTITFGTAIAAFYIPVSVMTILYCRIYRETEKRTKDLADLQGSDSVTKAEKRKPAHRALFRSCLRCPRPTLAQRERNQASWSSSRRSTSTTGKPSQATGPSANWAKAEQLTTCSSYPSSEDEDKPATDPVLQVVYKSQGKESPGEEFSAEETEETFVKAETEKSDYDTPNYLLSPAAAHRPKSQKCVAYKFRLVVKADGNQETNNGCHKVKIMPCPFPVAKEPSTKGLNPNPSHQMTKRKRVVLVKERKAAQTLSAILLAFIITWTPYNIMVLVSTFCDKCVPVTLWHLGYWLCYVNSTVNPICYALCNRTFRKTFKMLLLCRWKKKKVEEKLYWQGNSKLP
# Experiment: Cell-based functional calcium mobilization assay of mAChR M5 activity (inhibition of EC80 acetylcholine response) in CHO cells
# Conditions: CHO cells stably expressing hM5; for IC50: calcium flux (Fluo-4), EC80 acetylcholine addition; for EC80 MIN: minimum of EC80 acetylcholine response, normalized to maximum acetylcholine response
# Method in brief: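 CHO cells stably expressing human M5, loaded with Fluo-4 AM in HBSS/20 mM HEPES/2.5 mM probenecid pH 7.4. Compound added 140 s before acetylcholine EC20, then EC80 added 125 s later. Calcium flux normalized to maximal acetylcholine response; IC50 from ten-point curves in the EC80 window.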
IC50 [µM],EC80 MIN [%],SMILES
0.35,3,"O=C(Nc1ccc2scnc2c1)[C@@H]1CCN(S(=O)(=O)c2ccc3c(c2)OCO3)C1 [Compound 154, (R)-1-(benzo[d][1,3]dioxol-5-yisulfonyl)-N-(benzo[d]thiazol-5-yl)pyrrolidine-3-carboxamide]"
> 10,54,"O=C(Nc1ccc2scnc2c1)C1CCN(S(=O)(=O)c2ccccc2-c2ccno2)CC1 [Compound 155, N-(benzo[d]thiazol-5-yl)-1-((2-(isoxazol-5-yl)phenyl)sulfonyl)piperidine-4-carboxamide]"
> 10,6,"O=C(Nc1ccc2scnc2c1)C1CCN(S(=O)(=O)c2ccccc2F)CC1 [Compound 156, N-(benzo[d]thiazol-5-yl)-1-((2-fluorophcnyl)sulfonyl)piper idine-4-carboxaniide]"
2.34,4,"Cn1cc(S(=O)(=O)N2CCC(C(=O)Nc3ccc4scnc4c3)CC2)c(C(F)(F)F)n1 [Compound 157, N-(benzo[d]thiazol-5-yl)-1-((1-methyl-3-(trifluoromethyl)-1H-pyrazo1-4-yl)sulfonyl)piperidine-4-carboxamide]"

# From US20230303552A1, “ARYLSULFONYL DERIVATIVES AND THEIR USE AS MUSCARINIC ACETYLCHOLINE RECEPTOR M5 INHIBITORS” (Vanderbilt University, priority 2020, published 2023)
